From US10189795B2, “Aryl amine substituted quinoxaline used as anticancer drugs” (priority 2014, dated 2019)

Key:
NCI-1703 = test: cell viability of NCI-1703 cells, 1 and 10 uM of each erlotinib derivative, and IC50; format: cell-based; details: Homo sapiens
A549 = test: cell viability of A549 cells, 1 and 10 uM; format: cell-based; details: Homo sapiens
H2170 = test: cell viability of H2170 cells, 1 and 10 uM; format: cell-based; details: Homo sapiens, NCI-H2170
H520 = test: cell viability of H520 cells, 1 and 10 uM; format: cell-based; details: Homo sapiens, NCI-H520
SW900 = test: cell viability of SW900 cells, 1 and 10 uM; format: cell-based; details: Homo sapiens
BA (%), Table 5 = details: in vivo
SET-PP2Ac binding = target: T1, SET-PP2Ac binding (Homo sapiens, UniProt Q01105); test: disruption of SET-PP2Ac binding (surface plasmon resonance, co-IP)
T1 construct: His; purchased Genway (SET-His); Abnova (PP2Ac-GST) GWB-ATG319; H00005515
T1 sequence (Q01105 1-277 isoform Q01105-2): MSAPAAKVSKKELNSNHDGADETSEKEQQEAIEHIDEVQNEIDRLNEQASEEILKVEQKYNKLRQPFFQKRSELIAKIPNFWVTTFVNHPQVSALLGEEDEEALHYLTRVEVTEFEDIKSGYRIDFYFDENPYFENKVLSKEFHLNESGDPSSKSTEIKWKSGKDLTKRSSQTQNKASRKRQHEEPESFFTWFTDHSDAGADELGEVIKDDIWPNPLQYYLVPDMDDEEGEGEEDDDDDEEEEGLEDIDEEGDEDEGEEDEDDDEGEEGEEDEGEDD
Protocol: Binding affinities of full-length SET and truncated SET to PP2Ac and the effect of the erlotinib derivatives of the present invention on disrupting SET and PP2Ac were analyzed. PP2Ac-GST recombinant protein was bound in the CMS chip pre-coated with GST-capture antibodies. Sensorgrams were generated by injecting several concentrations of the erlotinib derivatives of the present invention mixed with fixed-concentration of SET recombinant protein, or the mixture of different concentration of truncated SET proteins in a fixed-dose EMQA. PP2Ac-GST recombinant protein used for this experiment was purchased from Abnova (H00005515) and SET-His recombinant protein was obtained from Genway (GWB-ATG319).
EMQA reactivates PP2A by disrupting the binding of SET-PP2Ac. To validate the role of SET, the present invention generated Hep3B cells with ectopic expression of myc-tagged SET by transient transfection. […] With a fixed amount of PP2Ac coated on the CM chip, the present invention tested the effects of a fixed-dose of EMQA on interfering different proportions of full-length and truncated forms of SET proteins in SPR system. […] To validate the findings of this ex vivo system, the present invention generated cells with ectopic overexpression of these two truncated forms of Flag-tagged SET proteins by transient transfections.

PP2A = PP2A phosphatase activity (malachite green-phosphate assay in cell lysate); format: cell-based
Protocol: The protein phosphatase activity in each cell lysate was determined by measuring the generation of free phosphate from threonine phosphopeptide using the malachite green-phosphate complex assay as described by the manufacturer (Upstate Biotechnology, Lake Placid, N.Y., USA). In brief, HCC cell lysates were first prepared in a low-detergent lysis buffer. […] After incubation for 10 min at 30° C., the malachite dye was added and free phosphate was measured by optical density at 650 nm. In order to avoid variation resulting from differences in the amount of immunoprecipitation protein between samples, the phosphatase activities were normalized to the amounts of PP2A immunoprecipitated, which were detected and quantified by immunoblot analysis for each treatment group.

HA22T = test: MTT cell viability, HA22T; format: cell-based; details: Homo sapiens, 48 h
Protocol: (§1) The present invention compared the antitumor activities of an erlotinib derivative of the present invention, TD-52, and erlotinib on HCC cells. The present invention used MTT assay to evaluate cell viability after exposure to TD-52 or erlotinib for 48 h. […] To further evaluate the cell apoptosis induced by the treatments, all four cell lines were treated with TD-52 and erlotinib at the indicated concentration for 24 h and the percentages of sub-G1 cells were determined by flow cytometry (FIG. 1B).

Hep3B = test: MTT cell viability, Hep3B; format: cell-based; details: Homo sapiens, 48 h
Protocol: (§2) The Sk-Hep1, PLC/PRF/5 (PLC) and Hep3B cell lines were obtained from American Type Culture Collection (ATCC; Manassas, Va., USA). The Huh-7 HCC cell line was obtained from the Health Science Research Resources Bank (HSRRB; Osaka, Japan; JCRB0403). Cells were maintained in DMEM supplemented with 10% FBS in a 37° C. humidified incubator in an atmosphere of 5% CO^2 in air. Other cell lines, including non-small cell lung cancer cells e.g. H358, H460 and A549 and human squamous cell carcinoma cells e.g. NCI-1703, H2170, H520, SW900 and NCI—H226 all obtained from American Type Culture Collection (Manassas, Va.) were also provided for the assays describes below.
as §1

PLC5 = test: MTT cell viability, PLC5; format: cell-based; details: 48 h
Protocol: as §2, §1

PLC5 xenograft tumor = PLC5 xenograft tumor growth in nude mice; format: in vivo
Protocol: Male NCr athymic nude mice (5-7 weeks of age) were obtained from the National Laboratory Animal Center (Taipei, Taiwan). All experimental procedures using these mice were performed in accordance with protocols approved by the Institutional Laboratory Animal Care and Use Committee of National Taiwan University. Each mouse was inoculated subcutaneously in the dorsal flank with 1×10^6 PLC5 or A549 cells suspended in serum-free medium containing 50% Matrigel (BD Biosciences, Bedford, Mass., USA). When tumors reached 100-150 mm^3, mice were treated with sorafenib, the erlotinib derivatives of the present invention, or vehicle (control) at 10 mg/kg/day daily by oral gavage for 4 weeks.
The present invention used a PLC5 xenograft mouse model to assess the effects of TD-52 in vivo. The present choose sorafenib as one of the comparative treatment arms. Tumor-bearing mice were administered sorafenib (10 mg/kg), TD-52 (10 mg/kg) or DMSO (vehicle, as control). […] The present invention further examined the xenografted tumors taken from mice receiving TD-52 and vehicle to confirm the molecular events in the tumor tissue. […] When PP2A activity was enhanced by TD-52, Akt was dephosphorylated, promoting HCC cell apoptosis.

Which viability at 1 µM (NCI-1703; 1 uM) does the source give for `C#Cc1cccc(Nc2nc3ccccc3nc2Nc2cccc(C#C)c2)c1` [TD52, N^2,N^3-bis(3-ethynylphenyl)quinoxaline-2,3-diamine] here?
Its viability at 1 µM is 84.7 ± 2.5%.

What about the viability at 10 µM (NCI-1703; 10 uM) of the same compound?
The viability at 10 µM was 10.1 ± 0.1%.

And the IC50 (NCI-1703; cell viability)?
The IC50 was 3800 nM.

And the viability at 1 µM (A549; 1 uM)?
Its viability at 1 µM is 71.5 ± 6%.

What about the viability at 10 µM (A549; 10 uM) of the same compound?
Its viability at 10 µM is 9.7 ± 0.9%.

What about the viability at 1 µM (H2170; 1 uM) of the same compound?
The viability at 1 µM was 100 ± 3.21%.

What about the viability at 10 µM (H2170; 10 uM) of the same compound?
The viability at 10 µM was 7.84 ± 9.49%.

And the viability at 1 µM (H520; 1 uM)?
The viability at 1 µM was 95.8 ± 1.26%.

What about the viability at 10 µM (H520; 10 uM) of the same compound?
The viability at 10 µM was 14 ± 0.14%.

And the viability at 1 µM (SW900; 1 uM)?
The viability at 1 µM was 107 ± 13.1%.

What about the viability at 10 µM (SW900; 10 uM) of the same compound?
The viability at 10 µM was 77.9 ± 11.3%.

What about the “BA (%)” value (BA (%), Table 5) of the same compound?
Its value is 87%.

And the “minimal concentration to disrupt SET-PP2Ac binding” value (SET-PP2Ac binding)?
The value was 100 to 200 nM.

And the “minimal concentration for PP2A activation” value (PP2A)?
Its value is 100 to 200 nM.

And the “PP2A activity in HCC cells” value (PP2A; 1 μL (printed) TD-52, 24 hr)?
Its value is “enhanced”.

What about the IC50 (HA22T) of the same compound?
Its IC50 is 900 nM.

What about the IC50 (Hep3B) of the same compound?
Its IC50 is 900 nM.

And the IC50 (PLC5)?
The IC50 was 800 nM.

And the “inhibition of in vivo tumor growth in comparison with sorafenib” value (PLC5 xenograft tumor; 10 mg/kg each, P<0.05)?
Its value is “more potent inhibition of in vivo tumor growth”.

What about the tumor size (PLC5 xenograft tumor; 10 mg/kg, oral gavage daily, 4 weeks, vs control arm) of the same compound?
The tumor size was “smaller than those of the control arm”.

And the “PP2A activity in xenograft tumor samples” value (PLC5 xenograft tumor; TD-52 vs vehicle)?
Its value is “enhanced PP2A activity”.
